Values quoted from earlier work, collected in patent publication US11173121B2, “Pellets having a multi-layer structure for delayed release of the active substance in the distal colon” (Dr. Falk Pharma GmbH, priority 2018, dated 2021).

CCCC1O[C@@H]2C[C@H]3[C@@H]4CCC5=CC(=O)C=C[C@]5(C)[C@H]4[C@@H](O)C[C@]3(C)[C@]2(C(=O)CO)O1 (stereo partly shown) [budesonide]
pKa value: 12.85±0.10
